Test results published in US20080261994A1, “CYCLOPROPANE COMPOUNDS AND PHARMACEUTICAL USE THEREOF” (Japan Tobacco Inc., priority 2003, published 2008).
Like-named read-outs stand apart in the source and are kept apart here.

How the values were obtained:
Assay type in all cases: biochemical
Recombinant Human MMP-13 = biological target: T1, Recombinant Human MMP-13 (Homo sapiens, UniProt P45452); test: MMP-13 inhibitory activity (MMP-13 specific fluorescent substrate with quencher)
T1 construct: purchased R&D systems 511-MM
Method in brief: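 IC50 (μM) derived from % inhibition, normalised to wells without enzyme and without inhibitor, fluorescence read at 325/405 nm. Enzyme and compound preceded addition of the quenched 7-MCA…DPA substrate; Tris-HCl buffer, 25 °C for 1 h, acetic-acid stop.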

MMP-1 = biological target: T2, MMP-1 (Homo sapiens, UniProt P03956); test: MMP-1 inhibitory action (Type I collagen Activity Measurement kit, FITC-labeled collagen type I)
T2 sequence (P03956 100-469): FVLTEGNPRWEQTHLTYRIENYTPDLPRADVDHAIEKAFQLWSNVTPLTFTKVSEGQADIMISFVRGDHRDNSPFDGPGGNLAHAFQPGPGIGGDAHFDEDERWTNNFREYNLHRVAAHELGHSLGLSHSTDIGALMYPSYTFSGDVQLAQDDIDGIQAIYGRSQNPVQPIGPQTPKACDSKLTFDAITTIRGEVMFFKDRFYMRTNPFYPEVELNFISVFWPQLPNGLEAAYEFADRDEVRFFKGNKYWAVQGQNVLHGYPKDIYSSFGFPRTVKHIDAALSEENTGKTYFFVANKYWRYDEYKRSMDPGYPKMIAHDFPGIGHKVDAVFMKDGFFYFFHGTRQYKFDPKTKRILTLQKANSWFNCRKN

aggrecanase-1 = biological target: T3, aggrecanase-1 (Homo sapiens, UniProt O75173); test: Aggrecanase-1 inhibitory action (Particle Assay, GAG release from aggrecan-containing polyacrylamide particles)
T3 sequence (O75173 213-837): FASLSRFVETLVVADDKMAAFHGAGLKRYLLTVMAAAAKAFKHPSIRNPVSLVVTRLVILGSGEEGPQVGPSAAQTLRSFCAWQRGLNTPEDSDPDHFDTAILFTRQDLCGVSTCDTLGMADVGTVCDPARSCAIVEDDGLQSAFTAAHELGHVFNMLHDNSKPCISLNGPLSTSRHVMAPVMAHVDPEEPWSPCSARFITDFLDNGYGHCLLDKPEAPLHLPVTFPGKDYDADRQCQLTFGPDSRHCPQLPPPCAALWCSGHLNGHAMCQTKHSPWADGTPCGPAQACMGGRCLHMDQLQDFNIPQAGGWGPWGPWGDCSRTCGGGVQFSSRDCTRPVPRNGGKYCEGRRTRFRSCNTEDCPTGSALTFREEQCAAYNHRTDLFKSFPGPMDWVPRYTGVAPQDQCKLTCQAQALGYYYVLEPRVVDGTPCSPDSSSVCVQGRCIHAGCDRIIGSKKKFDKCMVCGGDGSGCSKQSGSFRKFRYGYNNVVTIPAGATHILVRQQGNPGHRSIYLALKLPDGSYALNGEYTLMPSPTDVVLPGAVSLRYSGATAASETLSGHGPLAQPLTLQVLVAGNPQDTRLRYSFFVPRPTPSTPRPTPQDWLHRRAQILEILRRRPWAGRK
Method in brief: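 Readout was dimethylmethylene blue absorbance (595 nm) of glycosaminoglycan liberated into supernatant, calibrated with whale chondroitin sulfate. Substrate was aggrecan in polyacrylamide particles, digested 15 h at 37° C in Tris-HCl; TC50 (μM) derived from inhibition relative to no-enzyme and no-inhibitor controls.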

[1] = Recombinant Human MMP-13, fluorescent substrate, 25° C. for 1 h, read-out: IC50 MMP13 (Experimental Example 3)
[2] = MMP-1 inhibitory action, FITC-labeled collagen type I, 37° C. for 3 hr, read-out: IC50 MMP1 (Experimental Example 2)
[3] = aggrecanase-1 inhibitory action, read-out: IC50 AG1 (Experimental Example 1)
[4] = Experimental Example 3, read-out: IC50 MMP13
[5] = Experimental Example 2, read-out: IC50 MMP1
[6] = Experimental Example 1, read-out: IC50 AG1

| Compound | IC50 (Recombinant Human MMP-13; [1]) [nM] | IC50 (MMP-1; [2]) [nM] | IC50 (aggrecanase-1; [3]) [nM] | IC50 (Recombinant Human MMP-13; [4]) [nM] | IC50 (MMP-1; [5]) [nM] | IC50 (aggrecanase-1; [6]) [nM] |
| --- | --- | --- | --- | --- | --- | --- |
| Cc1ncc(-c2ccc(S(=O)(=O)NC3(C(=O)O)CC3c3ccccc3)s2)o1 (stereo not drawn) [Example 2-79] | ≥ 10000 | ≥ 10000 | ≥ 10000 |  |  |  |
| COc1cccc(C2(C)CC2(NS(=O)(=O)c2ccc(-c3cc(C(F)(F)F)on3)s2)C(=O)O)c1 (stereo not drawn) [Example 2-610] |  |  |  | ≥ 1000 | < 1000 | < 100 |
| O=C(O)C1(NS(=O)(=O)c2ccc(-c3ccc(Cl)cc3)s2)CC1COc1ccccc1 (stereo not drawn) [Example 2-52] | < 1000 | ≥ 10000 | < 1000 |  |  |  |
| O=C(O)C1(NS(=O)(=O)c2ccc(-c3ccc(Cl)cc3)s2)C2CCC(O)c3ccccc3C21 (stereo not drawn) [Example 2-412] |  |  |  | < 100 | ≥ 1000 | < 100 |
| CC1[C@H](c2ccccc2)[C@]1(NS(=O)(=O)c1ccc(-c2ccc(Cl)c(CO)c2)s1)C(=O)O (stereo partly drawn) [Example 2-565] |  |  |  | < 100 | < 1000 | < 100 |
| O=C(O)C1(NS(=O)(=O)c2ccc(-c3cc(C(F)(F)F)on3)s2)CC1c1cc(CO)on1 (stereo not drawn) [Example 2-317] |  |  |  | < 1000 | ≥ 1000 | < 1000 |
| O=C(O)C1(NS(=O)(=O)c2ccc3c(c2)Cc2cc(Br)ccc2-3)CC1c1ccccc1 (stereo not drawn) [Example 1-72] | < 1000 | ≥ 1000 | < 100 |  |  |  |
| CN1CCN(C(=O)c2ccccc2C2CC2(NS(=O)(=O)c2ccc(-c3ccc(Cl)cc3)s2)C(=O)O)CC1 (stereo not drawn) [Example 2-216] | < 1000 | ≥ 10000 | < 1000 |  |  |  |
| Nc1cccc([C@H]2C[C@@]2(NS(=O)(=O)c2ccc(-c3ccc(Cl)cc3)s2)C(=O)O)c1 [Example 2-174] | < 100 | ≥ 1000 | < 100 |  |  |  |
| O=C(O)C1(NS(=O)(=O)c2ccc(-c3cc(C(F)(F)F)on3)s2)C2CCOc3ccccc3C21 (stereo not drawn) [Example 2-370] |  |  |  | < 100 | < 1000 | < 100 |
| CS(=O)(=O)Nc1cccc(C2CC2(NS(=O)(=O)c2ccc(-c3ccc(Cl)cc3)s2)C(=O)O)c1 (stereo not drawn) [Example 1-130] | < 100 | ≥ 1000 | < 100 |  |  |  |
| O=C(O)C1(CS(=O)(=O)N2CCN(c3ccc(C(F)(F)F)cn3)CC2)CC1c1ccccc1 (stereo not drawn) [Example 2-185] | < 1000 | ≥ 10000 | ≥ 1000 |  |  |  |
| COCC1C(c2ccccc2)C1(NS(=O)(=O)c1ccc(-c2cc(C(F)(F)F)on2)s1)C(=O)O (stereo not drawn) [Example 2-539] |  |  |  | < 100 | < 1000 | < 100 |
| O=C(O)C1(NS(=O)(=O)c2ccc(-c3ccc(Cl)cc3)s2)C2CCOc3ccccc3C21 (stereo not drawn) [Example 2-369] |  |  |  | < 100 | ≥ 1000 | < 100 |
| O=C(O)[C@]1(NS(=O)(=O)c2ccc(-c3ccc(Cl)cc3)s2)C[C@@H]1c1cccc(Br)c1 [Example 2-136] | < 100 | ≥ 1000 | < 1000 |  |  |  |
| CC1[C@H](c2ccccc2)[C@]1(NS(=O)(=O)c1ccc(-n2cc(Br)cn2)s1)C(=O)O (stereo partly drawn) [Example 2-494] |  |  |  | < 100 | < 100 | < 100 |
| C[C@]1(c2ccccc2)C[C@@]1(NS(=O)(=O)c1ccc(N2CCOCC2)s1)C(=O)O [Example 2-421] |  |  |  | ≥ 1000 | ≥ 10000 | ≥ 1000 |
| O=C(O)C1(NS(=O)(=O)N2CCn3c(nnc3-c3ccccc3)C2)CC1c1ccccc1 (stereo not drawn) [Example 2-126] | ≥ 10000 | ≥ 10000 | ≥ 10000 |  |  |  |
| CCOC(=O)CSCC1(c2ccccc2)CC1(NS(=O)(=O)c1ccc(-c2ccc(Cl)cc2)s1)C(=O)O (stereo not drawn) [Example 2-352] |  |  |  | < 100 | ≥ 1000 | < 100 |
| CCC1(c2ccccc2)CC1(NS(=O)(=O)c1ccc(-c2ccc(Cl)cc2)s1)C(=O)O (stereo not drawn) [Example 2-129] | < 1000 | ≥ 10000 | < 1000 |  |  |  |

| Compound | IC50 (Recombinant Human MMP-13; [1]) [nM] | IC50 (MMP-1; [2]) [nM] | IC50 (aggrecanase-1; [3]) [nM] | IC50 (Recombinant Human MMP-13; [4]) [nM] | IC50 (MMP-1; [5]) [nM] | IC50 (aggrecanase-1; [6]) [nM] |
| --- | --- | --- | --- | --- | --- | --- |
| Cc1nc(-c2ccc(S(=O)(=O)NC3(C(=O)O)CC3c3ccccc3)s2)co1 (stereo not drawn) [Example 2-87] | ≥ 1000 | ≥ 10000 | ≥ 10000 |  |  |  |
| O=C(OCCCc1ccccc1C1CC1(NS(=O)(=O)c1ccc(-c2cc(C(F)(F)F)on2)s1)C(=O)O)N1CCC[C@H]1CO (stereo partly drawn) [Example 2-254] | < 100 | ≥ 1000 | < 100 |  |  |  |
| O=C(O)[C@]1(NS(=O)(=O)/C=C/c2cccc(Cl)c2)C[C@@H]1c1ccccc1 [Example 2-153] | ≥ 1000 | ≥ 10000 | ≥ 10000 |  |  |  |
| O=C(O)[C@]1(NS(=O)(=O)c2ccc3c(c2)Cc2cc(Br)ccc2-3)C[C@@H]1c1ccccc1 [Example 1-91] | < 100 | ≥ 1000 | < 100 |  |  |  |
| CCN(CC)CC1(c2ccccc2)CC1(NS(=O)(=O)c1ccc(-c2cc(C(F)(F)F)on2)s1)C(=O)O (stereo not drawn) [Example 2-343] |  |  |  | ≥ 1000 | ≥ 10000 | ≥ 1000 |
| CC1[C@H](c2ccccc2)[C@]1(NS(=O)(=O)N1CCCN(c2ccc(Cl)cc2)CC1)C(=O)O (stereo partly drawn) [Example 2-454] |  |  |  | ≥ 1000 | ≥ 10000 | < 1000 |
| O=C(O)C1(NS(=O)(=O)c2ccc(-c3ccc(Cl)cc3)s2)CC1(CCCO)c1ccccc1 (stereo not drawn) [Example 2-227] | < 1000 | ≥ 1000 | < 100 |  |  |  |
| O=C(O)[C@]1(NS(=O)(=O)c2ccc(-c3nc(C(F)(F)F)cs3)s2)C[C@@H]1c1ccccc1 [Example 2-60] | ≥ 1000 | ≥ 10000 | ≥ 10000 |  |  |  |
| O=C(O)C1(NS(=O)(=O)c2ccc(-c3ccc(Cl)cc3)s2)CC1c1cccc(OCc2ccccn2)c1 (stereo not drawn) [Example 1-108] | < 100 | ≥ 1000 | < 100 |  |  |  |
| C[C@]1(c2ccccc2)C[C@@]1(NS(=O)(=O)c1ccc(-c2ncc(F)cc2F)s1)C(=O)O [Example 2-466] |  |  |  | ≥ 1000 | ≥ 1000 | < 1000 |
| CN(C)CCOc1ccccc1C1CC1(NS(=O)(=O)c1ccc(-c2ccc(Cl)cc2)s1)C(=O)O (stereo not drawn) [Example 2-49] | ≥ 10000 | ≥ 10000 | ≥ 1000 |  |  |  |
| COC(=O)Cc1cccc(C2CC2(NS(=O)(=O)c2ccc(-c3ccc(Cl)cc3)s2)C(=O)O)c1 (stereo not drawn) [Example 2-188] | < 100 | ≥ 1000 | < 100 |  |  |  |
| CC(=O)Nc1cccc(-c2ccc(S(=O)(=O)N[C@@]3(C(=O)O)C[C@]3(C)c3ccccc3)s2)c1 [Example 2-480] |  |  |  | < 100 | < 1000 | < 1000 |
| CC1[C@H](c2ccccc2)[C@]1(NS(=O)(=O)c1cn2cc(-c3ccccc3)nc2s1)C(=O)O (stereo partly drawn) [Example 2-499] |  |  |  | < 100 | < 1000 | < 1000 |
| O=C(O)C1(NS(=O)(=O)c2ccc(-c3ccc(Cl)cc3)cc2)CC1c1cccc(Oc2ccccc2)c1 (stereo not drawn) [Example 1-10] | < 1000 | ≥ 1000 | < 1000 |  |  |  |
| CC1[C@H](c2ccccc2)[C@]1(NS(=O)(=O)N1CCN(C(=O)NCc2ccccc2)CC1)C(=O)O (stereo partly drawn) [Example 2-529] |  |  |  | ≥ 1000 | ≥ 1000 | ≥ 1000 |
| O=C(NCCO)c1ccccc1C1CC1(NS(=O)(=O)c1ccc(-c2ccc(Cl)cc2)s1)C(=O)O (stereo not drawn) [Example 2-72] | < 1000 | ≥ 10000 | < 100 |  |  |  |
| CN(c1ccccc1)c1ccc(S(=O)(=O)N[C@@]2(C(=O)O)C[C@]2(C)c2ccccc2)s1 [Example 2-515] |  |  |  | ≥ 1000 | ≥ 1000 | ≥ 1000 |
| O=C(CCc1ccc([C@H]2C[C@@]2(NS(=O)(=O)c2ccc(-c3cc(C(F)(F)F)on3)s2)C(=O)O)cc1)N1CCOCC1 [Example 2-279] |  |  |  | < 100 | < 1000 | < 100 |
| O=C(O)C1(NS(=O)(=O)c2ccc(-c3ccc(Cl)cc3)s2)CC1c1cccc(OCc2ccccc2)c1 (stereo not drawn) [Example 2-36] | < 1000 | ≥ 10000 | < 1000 |  |  |  |
